Assay results published in ChEMBL document CHEMBL1201862, “PubChem BioAssay data set” (2004).
The source made the active and inactive calls. Cut-off read from the data, not from the text of the source, for most assays here: actives have a measured IC50 and inactives only a lower limit.

Experiments:
Insulin-degrading enzyme = target: T1, Insulin-degrading enzyme (Homo sapiens, UniProt P14735); assay: activators of recombinant IDE enzyme, dose response, counter-screen for IDE activator project, biochemical, fluorescence polarization (AID 588681)
T1 sequence (P14735 whole entry): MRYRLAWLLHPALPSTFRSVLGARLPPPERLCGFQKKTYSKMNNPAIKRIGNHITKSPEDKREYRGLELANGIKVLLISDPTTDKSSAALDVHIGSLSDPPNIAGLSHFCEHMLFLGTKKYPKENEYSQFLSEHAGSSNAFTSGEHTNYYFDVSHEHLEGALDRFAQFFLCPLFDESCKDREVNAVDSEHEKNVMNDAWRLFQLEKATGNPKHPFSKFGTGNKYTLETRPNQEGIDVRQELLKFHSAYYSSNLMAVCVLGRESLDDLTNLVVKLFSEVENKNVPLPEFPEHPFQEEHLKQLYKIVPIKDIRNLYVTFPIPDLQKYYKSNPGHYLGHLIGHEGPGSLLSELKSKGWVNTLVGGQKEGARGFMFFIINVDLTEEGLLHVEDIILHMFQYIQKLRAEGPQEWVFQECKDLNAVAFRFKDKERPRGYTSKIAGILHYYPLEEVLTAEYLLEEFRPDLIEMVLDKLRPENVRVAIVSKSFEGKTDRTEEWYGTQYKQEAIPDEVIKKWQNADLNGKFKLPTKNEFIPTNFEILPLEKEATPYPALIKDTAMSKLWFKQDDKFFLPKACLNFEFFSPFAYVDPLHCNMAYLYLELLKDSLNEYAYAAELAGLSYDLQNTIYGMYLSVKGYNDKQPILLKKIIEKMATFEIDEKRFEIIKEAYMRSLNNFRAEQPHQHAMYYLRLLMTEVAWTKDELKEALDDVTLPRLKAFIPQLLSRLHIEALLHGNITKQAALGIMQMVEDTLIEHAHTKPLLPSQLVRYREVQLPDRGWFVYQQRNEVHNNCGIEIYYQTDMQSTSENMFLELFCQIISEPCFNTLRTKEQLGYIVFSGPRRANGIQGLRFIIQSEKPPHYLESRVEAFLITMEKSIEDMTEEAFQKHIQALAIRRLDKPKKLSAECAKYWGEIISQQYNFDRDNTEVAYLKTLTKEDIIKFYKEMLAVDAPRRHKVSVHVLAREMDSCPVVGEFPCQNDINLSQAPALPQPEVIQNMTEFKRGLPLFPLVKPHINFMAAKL

[1] = target: T2, Tyrosine-protein phosphatase non-receptor type 22 (Homo sapiens, UniProt Q9Y2R2); format: functional;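 note: confirmatory dose-response retesting of primary uHTS hits against LYP; potency is for inhibition of phosphatase activity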
T2 sequence (Q9Y2R2 whole entry): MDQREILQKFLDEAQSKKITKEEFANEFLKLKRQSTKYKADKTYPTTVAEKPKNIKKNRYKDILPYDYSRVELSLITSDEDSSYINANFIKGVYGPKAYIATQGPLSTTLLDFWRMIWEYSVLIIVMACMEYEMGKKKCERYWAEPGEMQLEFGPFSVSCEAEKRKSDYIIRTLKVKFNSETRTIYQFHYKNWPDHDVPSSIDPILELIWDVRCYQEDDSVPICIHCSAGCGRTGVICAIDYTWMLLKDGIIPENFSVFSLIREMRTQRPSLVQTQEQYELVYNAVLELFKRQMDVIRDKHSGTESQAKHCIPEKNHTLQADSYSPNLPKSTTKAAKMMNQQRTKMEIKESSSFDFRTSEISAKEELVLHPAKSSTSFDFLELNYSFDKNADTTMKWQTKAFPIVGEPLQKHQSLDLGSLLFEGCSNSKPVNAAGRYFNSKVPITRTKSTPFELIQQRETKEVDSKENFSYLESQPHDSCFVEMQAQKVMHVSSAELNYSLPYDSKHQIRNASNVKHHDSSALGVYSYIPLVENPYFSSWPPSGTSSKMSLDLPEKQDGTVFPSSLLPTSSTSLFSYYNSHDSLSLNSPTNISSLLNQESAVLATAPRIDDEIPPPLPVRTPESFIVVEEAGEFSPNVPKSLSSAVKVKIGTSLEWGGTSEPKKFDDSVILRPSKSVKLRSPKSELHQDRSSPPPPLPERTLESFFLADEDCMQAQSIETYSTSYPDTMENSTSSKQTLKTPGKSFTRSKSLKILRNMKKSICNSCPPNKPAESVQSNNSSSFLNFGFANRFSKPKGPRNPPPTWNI

[2] = target: T3, Tyrosine-protein phosphatase non-receptor type 5 (Homo sapiens, UniProt P54829); assay: STEP phosphatase inhibitors, confirmation, biochemical, fluorescence intensity, uHTS hits (AID 602372); format: functional; details: read-out: IC50_Mean
T3 sequence (P54829 whole entry): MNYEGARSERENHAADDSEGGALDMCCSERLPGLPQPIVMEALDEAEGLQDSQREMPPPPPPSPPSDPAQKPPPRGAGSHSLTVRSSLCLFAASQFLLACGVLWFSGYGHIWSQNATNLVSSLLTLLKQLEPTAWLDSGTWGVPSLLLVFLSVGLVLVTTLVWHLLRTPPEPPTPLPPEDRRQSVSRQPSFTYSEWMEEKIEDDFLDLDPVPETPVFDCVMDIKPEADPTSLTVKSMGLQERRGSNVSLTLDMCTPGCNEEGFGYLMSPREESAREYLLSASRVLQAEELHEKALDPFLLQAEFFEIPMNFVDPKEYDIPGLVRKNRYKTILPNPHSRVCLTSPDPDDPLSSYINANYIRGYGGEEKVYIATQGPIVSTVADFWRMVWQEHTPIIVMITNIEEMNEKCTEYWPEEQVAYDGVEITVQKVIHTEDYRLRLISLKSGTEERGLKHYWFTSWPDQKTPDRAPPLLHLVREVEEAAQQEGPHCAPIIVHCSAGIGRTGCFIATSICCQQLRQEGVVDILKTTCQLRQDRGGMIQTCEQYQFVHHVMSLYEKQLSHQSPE

[3] = target: DNA (cytosine-5)-methyltransferase 1 (Homo sapiens, UniProt P26358); assay: DNMT1 methyltransferase inhibitors, confirmation, biochemical, fluorescent molecular beacon (AID 602386); format: functional
Chain of DNA (cytosine-5)-methyltransferase 1 (P26358 whole entry): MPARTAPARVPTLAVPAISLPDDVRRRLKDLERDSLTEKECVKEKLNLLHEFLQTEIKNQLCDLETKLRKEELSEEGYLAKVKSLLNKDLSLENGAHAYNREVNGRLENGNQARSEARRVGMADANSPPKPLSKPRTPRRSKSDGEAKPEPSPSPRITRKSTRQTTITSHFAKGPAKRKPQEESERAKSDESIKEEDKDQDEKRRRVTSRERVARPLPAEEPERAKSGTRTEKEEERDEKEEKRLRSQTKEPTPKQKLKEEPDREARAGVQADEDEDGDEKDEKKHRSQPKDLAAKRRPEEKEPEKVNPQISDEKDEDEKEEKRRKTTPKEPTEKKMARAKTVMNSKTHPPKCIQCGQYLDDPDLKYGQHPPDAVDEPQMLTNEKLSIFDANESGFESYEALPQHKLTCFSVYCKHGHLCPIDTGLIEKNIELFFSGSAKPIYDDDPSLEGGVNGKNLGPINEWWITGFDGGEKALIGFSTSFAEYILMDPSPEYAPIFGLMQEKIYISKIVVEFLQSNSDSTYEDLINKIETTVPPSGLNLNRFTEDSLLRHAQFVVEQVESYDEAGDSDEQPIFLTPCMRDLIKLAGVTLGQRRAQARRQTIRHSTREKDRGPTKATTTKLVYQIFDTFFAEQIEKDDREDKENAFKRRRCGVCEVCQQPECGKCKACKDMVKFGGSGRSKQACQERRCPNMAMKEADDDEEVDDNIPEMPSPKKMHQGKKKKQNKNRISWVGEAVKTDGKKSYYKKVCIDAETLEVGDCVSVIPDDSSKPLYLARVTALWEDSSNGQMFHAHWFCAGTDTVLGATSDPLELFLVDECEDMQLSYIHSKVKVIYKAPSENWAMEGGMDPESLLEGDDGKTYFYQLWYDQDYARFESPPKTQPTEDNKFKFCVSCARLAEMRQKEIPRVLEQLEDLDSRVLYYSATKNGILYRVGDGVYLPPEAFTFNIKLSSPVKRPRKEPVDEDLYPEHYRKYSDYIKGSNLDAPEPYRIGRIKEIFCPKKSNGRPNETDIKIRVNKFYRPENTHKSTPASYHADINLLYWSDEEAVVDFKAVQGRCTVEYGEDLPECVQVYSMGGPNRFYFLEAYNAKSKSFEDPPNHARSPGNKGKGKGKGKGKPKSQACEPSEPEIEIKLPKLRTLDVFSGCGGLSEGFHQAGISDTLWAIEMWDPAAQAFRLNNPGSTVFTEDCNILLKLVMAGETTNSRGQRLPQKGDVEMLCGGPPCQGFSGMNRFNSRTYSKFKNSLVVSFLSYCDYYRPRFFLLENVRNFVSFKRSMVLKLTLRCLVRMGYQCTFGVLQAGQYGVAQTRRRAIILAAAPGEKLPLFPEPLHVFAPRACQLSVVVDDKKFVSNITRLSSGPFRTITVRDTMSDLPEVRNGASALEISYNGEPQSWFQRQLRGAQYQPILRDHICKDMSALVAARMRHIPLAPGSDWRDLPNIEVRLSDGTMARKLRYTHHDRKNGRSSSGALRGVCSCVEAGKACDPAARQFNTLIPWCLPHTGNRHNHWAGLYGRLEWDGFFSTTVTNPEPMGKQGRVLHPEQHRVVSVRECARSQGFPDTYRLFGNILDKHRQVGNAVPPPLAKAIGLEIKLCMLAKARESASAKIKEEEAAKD

SUMO-activating enzyme [4] = target: T4, SUMO-activating enzyme (Homo sapiens, UniProt Q9UBT2); assay: SUMOylation inhibitor hit validation, confirmation, SUMOylation inhibitor project, biochemical, AlphaScreen (AID 2018); format: functional
T4 sequence (Q9UBE0 whole entry): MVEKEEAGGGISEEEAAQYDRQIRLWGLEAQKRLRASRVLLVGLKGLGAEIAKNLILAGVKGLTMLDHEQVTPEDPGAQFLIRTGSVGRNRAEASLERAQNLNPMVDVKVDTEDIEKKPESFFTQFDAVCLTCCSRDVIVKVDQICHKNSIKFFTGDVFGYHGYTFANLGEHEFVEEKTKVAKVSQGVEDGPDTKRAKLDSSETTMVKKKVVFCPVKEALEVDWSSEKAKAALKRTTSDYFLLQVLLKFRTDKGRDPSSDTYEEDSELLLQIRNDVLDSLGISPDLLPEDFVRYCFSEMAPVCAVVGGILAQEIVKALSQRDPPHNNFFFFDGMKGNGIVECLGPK
T4 sequence (Q9UBT2 whole entry): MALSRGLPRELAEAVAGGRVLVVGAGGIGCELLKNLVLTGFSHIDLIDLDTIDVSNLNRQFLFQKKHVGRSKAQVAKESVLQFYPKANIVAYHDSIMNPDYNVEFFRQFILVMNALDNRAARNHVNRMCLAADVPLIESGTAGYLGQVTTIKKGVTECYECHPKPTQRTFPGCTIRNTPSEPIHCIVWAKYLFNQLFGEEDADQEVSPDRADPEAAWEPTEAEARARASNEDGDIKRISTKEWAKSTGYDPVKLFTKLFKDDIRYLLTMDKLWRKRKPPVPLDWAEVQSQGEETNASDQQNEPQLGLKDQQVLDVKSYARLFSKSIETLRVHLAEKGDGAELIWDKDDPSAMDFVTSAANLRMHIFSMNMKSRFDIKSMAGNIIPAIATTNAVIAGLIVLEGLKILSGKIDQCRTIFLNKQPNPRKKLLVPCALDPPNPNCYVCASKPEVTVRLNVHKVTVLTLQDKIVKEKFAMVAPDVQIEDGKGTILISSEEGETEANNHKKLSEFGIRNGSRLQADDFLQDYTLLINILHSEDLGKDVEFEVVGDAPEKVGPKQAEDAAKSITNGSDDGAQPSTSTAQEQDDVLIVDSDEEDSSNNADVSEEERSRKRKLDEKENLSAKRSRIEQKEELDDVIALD

SUMO-activating enzyme [5] = target: T4, SUMO-activating enzyme; assay: inhibitors of in vitro SUMOylation cascade, primary screen, biochemical, HTRF, uHTS (AID 2006); format: protein-complex assay

O=c1oc2c(O)cccc2cc1-c1nc2ccccc2[nH]1
EC50 (Insulin-degrading enzyme): > 54700 nM (inactive)

CCOC(=O)c1sc2nc3c(SCC(=O)O)cc(C(=O)c4ccccc4O)cn3c(=O)c2c1C
IC50 [1]: < 1240 nM (active) | IC50 [2]: 2180 nM (active) | IC50 [3]: 4120 nM (active)

C=CCn1c(NC(=O)c2ccccc2Cl)c(C#N)c2nc3ccccc3nc21
IC50 (SUMO-activating enzyme [4]): 860 nM (active) | IC50 (SUMO-activating enzyme [5]): 2630 nM (active)
